The values below come from patent US20230036854A1, “HETEROCYCLIC SPIRO-COMPOUNDS AS AM2 RECEPTOR INHIBITORS” (THE UNIVERSITY OF SHEFFIELD, priority 2018, published 2023).

Where no end group is shown, it is not given here.

T1 sequence (Q16602 23-461): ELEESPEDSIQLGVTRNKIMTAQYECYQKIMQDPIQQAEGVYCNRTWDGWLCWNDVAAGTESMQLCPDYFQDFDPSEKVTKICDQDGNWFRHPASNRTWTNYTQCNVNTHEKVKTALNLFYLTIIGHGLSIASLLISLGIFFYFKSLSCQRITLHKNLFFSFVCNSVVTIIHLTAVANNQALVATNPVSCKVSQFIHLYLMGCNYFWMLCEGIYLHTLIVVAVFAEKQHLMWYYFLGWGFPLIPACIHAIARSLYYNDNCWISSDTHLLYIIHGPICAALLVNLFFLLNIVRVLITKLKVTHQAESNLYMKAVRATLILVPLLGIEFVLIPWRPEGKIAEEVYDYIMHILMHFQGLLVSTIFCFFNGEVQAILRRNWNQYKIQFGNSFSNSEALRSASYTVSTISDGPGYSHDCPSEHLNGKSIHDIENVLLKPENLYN
T1 sequence (O60896 24-148): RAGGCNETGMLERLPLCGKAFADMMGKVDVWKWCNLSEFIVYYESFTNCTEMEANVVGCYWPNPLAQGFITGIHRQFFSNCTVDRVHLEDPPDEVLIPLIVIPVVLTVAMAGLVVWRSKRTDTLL

The test system of the first test is human pancreatic cancer cells.
Experiment: not given
The settings on record: local injection directly into tumours, pancreatic cancer model; cited from earlier work.
Consider “AM22-52: "the AM peptide antagonist (AM22-52)"; "peptide and antibody AM2 receptor inhibitors are known such as AM22-52" (TVQKLAHQIYQFTDKDKDNVAPRSKISPQGY; ends and bridges not checked; UniProt P35318 116-146, looked up, fragment)”, for which the “tumour size compared to controls” value was “reduced tumour size significantly”.

Another test addresses T1, AM2 receptor (1321N1 cells transfected with CALCRL+RAMP3) (Homo sapiens, UniProt O60896+Q16602).
T1 construct: host or cells: 1321N1 cells
Briefly: AM2 receptor inhibition, LANCE cAMP agonist-antagonist competition assay. The test is classed as cell-based. The settings on record: inhibition of AM induced cAMP activation, read-out: AM2 D2 protocol: pIC50 (converted). The procedure, abridged:
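1321N1 cells co-expressing CALCRL and RAMP3 (2500/well) were preincubated with compound for 30 min at room temperature, then stimulated with adrenomedullin at its EC50 dose for 15 min in HBSS/HEPES/BSA buffer, pH 7.4. cAMP was measured by LANCE TR-FRET and normalised to forskolin (100%) and vehicle (0%) controls.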
As for `CNCc1cc(F)ccc1CN(CC(=O)Nc1ccc2c(c1)C[C@@]1(C2)C(=O)Nc2ncccc21)C(=O)C1(C)CCNCC1` [Example 137, (R)—N-[[4-Fluoro-2-(methylaminomethyl)phenyl]methyl]-4-methyl-N-[2-oxo-2-[[(3R)-2-oxospiro[1H-pyrrolo[2,3-b]pyridine-3,2′-indane]-5′-yl]amino]ethyl]piperidine-4-carboxamide], the IC50 was 417 nM. The same measure, in the same setting: to `CNCc1cc(F)ccc1CN(CC(=O)Nc1ccc2c(c1)C[C@@]1(C2)C(=O)Nc2ncccc21)C(=O)C1(C)CCN(C(C)=O)CC1` [Example 138, (R)-1-Acetyl-N-[[4-fluoro-2-(methylaminomethyl)phenyl]methyl]-4-methyl-N-[2-oxo-2-[[(3R)-2-oxospiro[1H-pyrrolo[2,3-b]pyridine-3,2′-indane]-5′-yl]amino]ethyl]piperidine-4-carboxamide] belongs 501 nM. `CNCc1ccccc1CN(CC(=O)Nc1ccc2c(c1)CC1(C2)C(=O)Nc2ncccc21)C(=O)C12CCN(CC1)CC2` (centres unmarked) [Example 139, N-(2-((Methylamino)methyl)benzyl)-N-(2-oxo-2-((2′-oxo-1,1′,2′,3-tetrahydrospiro[indene-2,3′-pyrrolo[2,3-b]pyridin]-5-yl)amino)ethyl)quinuclidine-4-carboxamide]: the IC50 was 56.2 nM. For `CCC1(C(=O)N(CC(=O)Nc2ccc3c(c2)C[C@@]2(C3)C(=O)Nc3ncccc32)Cc2ccccc2CNC)CCN(C)C(=O)C1` (stereo partly drawn) [Example 140, 4-Ethyl-1-methyl-N-(2-((methylamino)methyl)benzyl)-2-oxo-N-(2-oxo-2-(((R)-2′-oxo-1,1′,2′,3-tetrahydrospiro[indene-2,3′-pyrrolo[2,3-b]pyridin]-5-yl)amino)ethyl)piperidine-4-carboxamide], the IC50 is 417 nM. Still for that read-out and setting: to `CCC1(C(=O)N(CC(=O)Nc2ccc3c(c2)C[C@@]2(C3)C(=O)Nc3ncccc32)Cc2ccccc2CNC(C)C)CCN(C(C)=O)CC1` [Example 141, (R)-1-Acetyl-4-ethyl-N-(2-((isopropylamino)methyl)benzyl)-N-(2-oxo-2-((2′-oxo-1,1′,2′,3-tetrahydrospiro[indene-2,3′-pyrrolo[2,3-b]pyridin]-5-yl)amino)ethyl)piperidine-4-carboxamide] belongs 102 nM. For the compound `CNCc1ccccc1CN(CC(=O)Nc1ccc2c(c1)C[C@@]1(C2)C(=O)Nc2ncccc21)C(=O)C1(C)CCNC1` (stereo partly drawn) [Example 142, 3-Methyl-N-(2-((methylamino)methyl)benzyl)-N-(2-oxo-2-(((R)-2′-oxo-1,1′,2′,3-tetrahydrospiro[indene-2,3′-pyrrolo[2,3-b]pyridin]-5-yl)amino)ethyl)pyrrolidine-3-carboxamide], the IC50 was 40.7 nM. Regarding `CNCc1ccccc1CN(CC(=O)Nc1ccc2c(c1)C[C@@]1(C2)C(=O)Nc2ncccc21)C(=O)C1(C)CCN(C(C)=O)C1` (stereo partly drawn) [Example 143, Acetyl-3-methyl-N-(2-((methylamino)methyl)benzyl)-N-(2-oxo-2-(((R)-2′-oxo-1,1′,2′,3-tetrahydrospiro[indene-2,3′-pyrrolo[2,3-b]pyridin]-5-yl)amino)ethyl)pyrrolidine-3-carboxamide], the IC50 is 51.3 nM. `CNCc1ccccc1CN(CC(=O)Nc1ccc2c(c1)C[C@@]1(C2)C(=O)Nc2ncccc21)C(=O)C1(C)CN(C(C)=O)C1` [Example 144, (R)-1-Acetyl-3-methyl-N-(2-((methylamino)methyl)benzyl)-N-(2-oxo-2-((2′-oxo-1,1′,2′,3-tetrahydrospiro[indene-2,3′-pyrrolo[2,3-b]pyridin]-5-yl)amino)ethyl)azetidine-3-carboxamide]: the IC50 is 75.9 nM. Same read-out and setting: to `CNCc1ccccc1CN(CC(=O)Nc1ccc2c(c1)C[C@@]1(C2)C(=O)Nc2ncccc21)C(=O)C1(C)CCCN(C(C)=O)C1` (stereo partly drawn) [Example 145, 1-Acetyl-3-methyl-N-(2-((methylamino)methyl)benzyl)-N-(2-oxo-2-(((R)-2′-oxo-1,1′,2′,3-tetrahydrospiro[indene-2,3′-pyrrolo[2,3-b]pyridin]-5-yl)amino)ethyl)piperidine-3-carboxamide] belongs 302 nM. On to `CNCc1ccccc1CN(CC(=O)Nc1ccc2c(c1)C[C@@]1(C2)C(=O)Nc2ncccc21)C(=O)C1(C)CCCNC1` (stereo partly drawn) [Example 146, 3-Methyl-N-(2-((methylamino)methyl)benzyl)-N-(2-oxo-2-(((R)-2′-oxo-1,1′,2′,3-tetrahydrospiro[indene-2,3′-pyrrolo[2,3-b]pyridin]-5-yl)amino)ethyl)piperidine-3-carboxamide], for which the IC50 was 229 nM. With `CCC1(C(=O)N(CC(=O)Nc2ccc3c(c2)C[C@@]2(C3)C(=O)Nc3ncccc32)Cc2ccccc2CNC)CCS(=O)(=O)CC1` [Example 147, (R)-4-Ethyl-N-(2-((methylamino)methyl)benzyl)-N-(2-oxo-2-((2′-oxo-1,1′,2′,3-tetrahydrospiro[indene-2,3′-pyrrolo[2,3-b]pyridin]-5-yl)amino)ethyl)tetrahydro-2H-thiopyran-4-carboxamide 1,1-dioxide], the IC50 is 10.5 nM. Still for that read-out and setting: to `CNCc1ccccc1CN(CC(=O)Nc1ccc2c(c1)C[C@@]1(C2)C(=O)Nc2ncccc21)C(=O)C1(C)CC2CCC(C1)N2C(C)=O` (stereo partly drawn) [Example 148, 8-Acetyl-3-methyl-N-(2-((methylamino)methyl)benzyl)-N-(2-oxo-2-(((R)-2′-oxo-1,1′,2′,3-tetrahydrospiro[indene-2,3′-pyrrolo[2,3-b]pyridin]-5-yl)amino)ethyl)-8-azabicyclo[3.2.1]octane-3-carboxamide] belongs 2.24 nM; to `CNCc1ccccc1CN(CC(=O)Nc1ccc2c(c1)C[C@@]1(C2)C(=O)Nc2ncccc21)C(=O)C1(C)CCCN(C(C)=O)CC1` (stereo partly drawn) [Example 149, 1-Acetyl-4-methyl-N-(2-((methylamino)methyl)benzyl)-N-(2-oxo-2-(((R)-2′-oxo-1,1′,2′,3-tetrahydrospiro[indene-2,3′-pyrrolo[2,3-b]pyridin]-5-yl)amino)ethyl)azepane-4-carboxamide], 2.88 nM.
